Our source for the IC50 values is patent US10336760B2, “Inhibitors of cyclin-dependent kinase 7 (CDK7)” (SYROS PHARMACEUTICALS, INC., priority 2014, dated 2019).

Broadly, the IC50 is the concentration needed to halve the response being measured.

Read-outs that look alike come from different tables or passages of the source. Bounds are passed on as bounds.

One assay deals with T1, CDK7 (Homo sapiens, UniProt P50613).
T1 construct: purchased Life Technologies (Grand Island, N.Y.), Adapta kinase assay service
As to the kind of experiment: CDK7 kinase activity, Adapta kinase assay (Life Technologies). Further: concentrations from 10 µM down to 0.514 nM. In kind it is biochemical. As to conditions: read-out: CDK7 Inhibition (IC50). On the procedure: Compounds of the invention were assayed for CDK7 activity at Life Technologies (Grand Island, N.Y.) using their commercially available Adapta® kinase assay services. […] Details of this assay, including substrates used, are available on the Life Technologies web site (http://www.lifetechnologies.com/us/en/home/life-science/drug-discovery/target-and-lead-identification-and-validation/kinasebiology/kinase-activity-assays.html).

The next assay deals with A673 cells. Briefly: Inhibition of A673 cell proliferation (CyQUANT). In kind it is cell-based. As to conditions: Homo sapiens, read-out: A673 IC50. The method, then:
Representative compounds of the invention were tested at different concentrations (from 4 μM to 126.4 pM; 0.5 log serial dilutions) for their ability to inhibit the proliferation of A673 cells. Known CDK inhibitors flavopiridol and triptolide were used as positive controls. Cells were grown in Dulbecco's Modified Eagle's Medium, +10% FBS+1 mM Sodium Pyruvate. The cells were cultured at 37° C. in a humidified chamber in the presence of 5% CO2. Proliferation assays were conducted over a 72 hour time period. CyQUANT® (Life Technologies, Chicago, Ill. USA) was used to assess the anti-proliferative effects of the compounds following manufacturer's directions and utilizing the reagents supplied with the CyQUANT® kit.

The mark [1] stands for this setting: A673 cells, 72 hour proliferation, CyQUANT, 4 μM to 126.4 pM, 0.5 log serial dilutions.

T1 sequence (P50613 whole entry): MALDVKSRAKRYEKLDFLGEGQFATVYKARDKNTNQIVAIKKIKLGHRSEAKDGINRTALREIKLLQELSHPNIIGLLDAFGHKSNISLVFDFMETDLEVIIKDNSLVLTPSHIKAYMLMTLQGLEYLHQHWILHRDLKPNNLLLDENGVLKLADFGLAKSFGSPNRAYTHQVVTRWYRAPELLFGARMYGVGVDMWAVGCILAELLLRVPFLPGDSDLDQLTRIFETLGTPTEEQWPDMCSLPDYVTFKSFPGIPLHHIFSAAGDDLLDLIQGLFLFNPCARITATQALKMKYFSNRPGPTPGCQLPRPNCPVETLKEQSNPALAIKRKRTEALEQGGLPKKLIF
T1 sequence (P51946 whole entry partner): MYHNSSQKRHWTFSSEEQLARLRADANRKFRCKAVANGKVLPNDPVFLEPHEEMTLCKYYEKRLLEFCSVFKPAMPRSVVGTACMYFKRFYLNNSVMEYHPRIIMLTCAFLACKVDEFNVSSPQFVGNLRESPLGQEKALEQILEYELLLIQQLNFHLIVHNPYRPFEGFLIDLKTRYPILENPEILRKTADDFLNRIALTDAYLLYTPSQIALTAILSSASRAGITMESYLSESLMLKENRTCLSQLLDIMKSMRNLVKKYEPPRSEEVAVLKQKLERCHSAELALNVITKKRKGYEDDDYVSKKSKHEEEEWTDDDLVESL
T1 sequence (P51948 whole entry partner): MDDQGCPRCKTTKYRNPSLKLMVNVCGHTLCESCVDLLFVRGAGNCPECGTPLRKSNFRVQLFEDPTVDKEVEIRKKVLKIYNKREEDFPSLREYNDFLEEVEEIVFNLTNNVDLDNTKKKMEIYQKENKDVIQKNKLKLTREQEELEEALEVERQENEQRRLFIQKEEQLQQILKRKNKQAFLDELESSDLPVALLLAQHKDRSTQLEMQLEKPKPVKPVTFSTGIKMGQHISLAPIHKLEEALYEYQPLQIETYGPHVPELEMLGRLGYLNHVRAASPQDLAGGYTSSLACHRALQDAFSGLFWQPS

Turning to `CC(C)c1cnn2c(NC3CCN(C(=O)c4ccc(NC(=O)/C=C/CN(C)C)cc4)CC3)nc(OC3CCN(C)CC3)nc12` [Compound 102, (E)-4-(Dimethylamino)-N-(4-(4-((8-isopropyl-2-((1-methylpiperidin-4-yl)oxy)pyrazolo[1,5-a][1,3,5]triazin-4-yl)amino)piperidine-1-carbonyl)phenyl)but-2-enamide], the IC50 at CDK7 is above 1000 nM; in the assay on A673 cells (setting [1]), 500 to 5000 nM.

Regarding `CC(C)c1cnn2c(NCc3ccccc3NC(=O)c3ccc(NC(=O)/C=C/CN(C)C)cc3)nc(OC3CCN(C)CC3)nc12` [Compound 103, (E)-4-(4-(dimethylamino)but-2-enamido)-N-(2-(((8-isopropyl-2-((1-methylpiperidin-4-yl)oxy)pyrazolo[1,5-a][1,3,5]triazin-4-yl)amino)methyl)phenyl)benzamide], the IC50 was 100 to 1000 nM at CDK7 and 500 to 5000 nM with A673 cells (setting [1]).

`CC(C)c1cnn2c(NCc3ccccc3NCc3ccc(NC(=O)/C=C/CN(C)C)cc3)nc(OC3CCN(C)CC3)nc12` [Compound 104, (E)-4-(dimethylamino)-N-(4-(((2-(((8-isopropyl-2-((1-methylpiperidin-4-yl)oxy)pyrazolo[1,5-a][1,3,5]triazin-4-yl)amino)methyl)phenyl)amino)methyl)phenyl)but-2-enamide]: the IC50 at CDK7 was below 100 nM; in the assay with A673 cells (setting [1]) it was below 500 nM.

With `CC(C)c1cnn2c(NCc3ccccc3N3CCN(C(=O)/C=C/CN(C)C)CC3)nc(OC3CCN(C)CC3)nc12` [Compound 105, (E)-4-(Dimethylamino)-1-(4-(2-(((8-isopropyl-2-((1-methylpiperidin-4-yl)oxy)pyrazolo[1,5-a][1,3,5]triazin-4-yl)amino)methyl)phenyl)piperazin-1-yl)but-2-en-1-one], the IC50 was below 100 nM at CDK7 and below 500 nM in the assay on A673 cells (setting [1]).

As for `C=CC(=O)Nc1cccc(C(=O)N2CCC(C(=O)Nc3ncc(SCc4ncc(C(C)(C)C)o4)s3)CC2)c1` [Compound 117, 1-(3-Acrylamidobenzoyl)-N-(5-(((5-(tert-butyl)oxazol-2-yl)methyl)thio)thiazol-2-yl)piperidine-4-carboxamide], the IC50 in the assay with A673 cells (setting [1]) is below 500 nM.

`C=CC(=O)Nc1cccc(CN2CCC(C(=O)Nc3ncc(SCc4ncc(C(C)(C)C)o4)s3)CC2)c1` [Compound 118, 1-(3-Acrylamidobenzyl)-N-(5-(((5-(tert-butyl)oxazol-2-yl)methyl)thio)thiazol-2-yl)piperidine-4-carboxamide]: the IC50 at CDK7 was 100 to 1000 nM; in the assay with A673 cells (A673, 72 h), below 500 nM.

For the compound `C=CC(=O)Nc1ccc(CN2CCC(C(=O)Nc3ncc(SCc4ncc(C(C)(C)C)o4)s3)CC2)cc1` [Compound 119, 1-(4-Acrylamidobenzyl)-N-(5-(((5-(tert-butyl)oxazol-2-yl)methyl)thio)thiazol-2-yl)piperidine-4-carboxamide], the IC50 at CDK7 was 100 to 1000 nM; with A673 cells (A673, 72 h), below 500 nM.

Regarding `C=CC(=O)N1CCC(CN2CCC(C(=O)Nc3ncc(SCc4ncc(C(C)(C)C)o4)s3)CC2)CC1` [Compound 120, 1-((1-Acryloylpiperidin-4-yl)methyl)-N-(5-(((5-(tert-butyl)oxazol-2-yl)methyl)thio)thiazol-2-yl)piperidine-4-carboxamide], the IC50 on CDK7 is above 1000 nM; with A673 cells (A673, 72 h), below 500 nM.

Take `C=CC(=O)Nc1cccc(C(C)N2CCC(C(=O)Nc3ncc(SCc4ncc(C(C)(C)C)o4)s3)CC2)c1` (centres unmarked) [Compound 121, 1-(1-(3-Acrylamidophenyl)ethyl)-N-(5-(((5-(tert-butyl)oxazol-2-yl)methyl)thio)thiazol-2-yl)piperidine-4-carboxamide]: the IC50 is 100 to 1000 nM on CDK7 and below 500 nM with A673 cells (A673, 72 h).

Regarding `C=CC(=O)Nc1ccc(C(=O)N2CCC(C(=O)Nc3ncc(SCc4ncc(C(C)(C)C)o4)s3)CC2)cc1` [Compound 122, 1-(4-Acrylamidobenzoyl)-N-(5-(((5-(tert-butyl)oxazol-2-yl)methyl)thio)thiazol-2-yl)piperidine-4-carboxamide], the IC50 with A673 cells (setting [1]) is below 500 nM.

Take `C=CC(=O)N1CCC(C(=O)N2CCC(C(=O)Nc3ncc(SCc4ncc(C(C)(C)C)o4)s3)CC2)CC1` [Compound 123, 1-(1-Acryloylpiperidine-4-carbonyl)-N-(5-(((5-(tert-butyl)oxazol-2-yl)methyl)thio)thiazol-2-yl)piperidine-4-carboxamide]: in the assay on A673 cells (setting [1]), the IC50 is below 500 nM.

On to `C=CC(=O)N1CCCC(CN2CCC(C(=O)Nc3ncc(SCc4ncc(C(C)(C)C)o4)s3)CC2)C1` (centres unmarked) [Compound 125, 1-((1-Acryloylpiperidin-3-yl)methyl)-N-(5-(((5-(tert-butyl)oxazol-2-yl)methyl)thio)thiazol-2-yl)piperidine-4-carboxamide], for which the IC50 on CDK7 is 100 to 1000 nM; in the assay on A673 cells (A673, 72 h), below 500 nM.

Turning to `CN(C)C/C=C/C(=O)Nc1cccc(CN2CCC(C(=O)Nc3ncc(SCc4ncc(C(C)(C)C)o4)s3)CC2)c1` [Compound 127, (E)-N-(5-(((5-(tert-butyl)oxazol-2-yl)methyl)thio)thiazol-2-yl)-1-(3-(4-(dimethylamino)but-2-enamido)benzyl)piperidine-4-carboxamide], the IC50 was 100 to 1000 nM at CDK7 and below 500 nM in the assay with A673 cells (setting [1]).
